Measured values reported in patent EP3315028B1, “USE OF INHIBITORS OF NLP PROTEINS AS PHYTOPHARMACEUTICALS FOR PLANT PATHOGEN CONTROL” (Kemijski Institut, priority 2016, dated 2018).

Molecular target: T1, NLPPp (Phytophthora nicotianae, UniProt Q9AT28)
T1 construct: made in house; host or cells: Pichia pastoris
T1 sequence (Q9AT28 20-237): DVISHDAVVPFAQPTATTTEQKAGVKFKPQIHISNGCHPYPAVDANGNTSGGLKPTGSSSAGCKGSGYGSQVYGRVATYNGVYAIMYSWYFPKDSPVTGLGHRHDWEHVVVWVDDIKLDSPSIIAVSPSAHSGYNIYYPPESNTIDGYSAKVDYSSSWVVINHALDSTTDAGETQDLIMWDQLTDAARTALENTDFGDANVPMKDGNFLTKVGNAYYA
Experiment: Interactions of compounds with NLP proteins determined by surface plasmon resonance (NLPPp)
Assay type: binding, Phytophthora parasitica
Conditions: Biacore T100, CM5 chip, Steady State Affinity model; 50 mM MES, 140 mM NaCl, 5 % DMSO, pH 5,8; 25 °C; n=number of titrations

In order of rising Kd:
1. Cc1ccc(C)c(Nc2c(C(=O)O)cc([N+](=O)[O-])cc2[N+](=O)[O-])c1 [IId, 2-[(2,5-dimethylphenyl)amino]-3,5-dinitrobenzoic acid]  39.7 µM
2. O=C(O)c1ccccc1Nc1cccc(F)c1 [IIc, N-(3-Fluorophenyl)anthranilic acid]  62.4 µM
3. COc1ccc(Nc2ccccc2C(=O)O)cc1 [Compound IIa, 2-[(4-methoxyphenyl)amino]benzoic acid]  71.9 µM
4. Cc1ccc(Nc2ccccc2C(=O)O)cc1 [IIb, 2-[(4-methylphenyl)amino]benzoic acid]  83.2 µM

Molecular target: T2, NLPPya (Pythium aphanidermatum, UniProt Q9SPD4)
T2 sequence (Q9SPD4 18-234 limits assumed): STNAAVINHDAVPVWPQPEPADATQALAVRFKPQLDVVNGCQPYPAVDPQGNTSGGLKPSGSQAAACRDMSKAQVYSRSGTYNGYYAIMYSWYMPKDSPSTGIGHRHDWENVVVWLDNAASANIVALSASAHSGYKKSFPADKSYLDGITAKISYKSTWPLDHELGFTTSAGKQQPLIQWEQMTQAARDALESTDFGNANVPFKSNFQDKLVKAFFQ
Experiment: Infiltration of NLPs into tobacco leaves in the presence of compounds (inhibition of necrosis)
Assay type: in vivo
Conditions: compound at the final 1 mM concentration; NLPPya 250 nM; tobacco leaves (Figure 5)
Protocol: NLP proteins: NLPPya from the oomycete, Pythium aphanidermatum, was prepared in recombinant form by the use of heterologous expression system for protein production in Escherichia coli. NLPPp from oomycete Phytophthora parasitica was prepared in yeast Pichia pastoris. Proteins were purified with chromatographic procedures and stored in water solutions at -20 °C.
We have injected 50 µL of solution.

Cc1ccc2occ(C3NC(C(=O)O)CS3)c(=O)c2c1 (stereo not drawn) [Compound I, 2-(6-methyl-4-oxochromen-3-yl)-1,3-thiazolidin-3-ium-4-carboxylate] was tested, and the “necrosis after infiltration of NLP proteins in the presence of compound” value was “Necrosis was not visible”.
COc1ccc(Nc2ccccc2C(=O)O)cc1 [Compound IIa, 2-[(4-methoxyphenyl)amino]benzoic acid] was tested, and the “necrosis after infiltration of NLP proteins in the presence of compound” value was “Necrosis was not visible”.

Molecular target: T2, NLPPya
Experiment: Interactions of compounds with NLP proteins determined by surface plasmon resonance (NLPPya)
Assay type: binding
Conditions: Biacore T100, CM5 chip, Steady State Affinity model; 50 mM MES, 140 mM NaCl, 5 % DMSO, pH 5,8; 25 °C; n=number of titrations

In order of rising Kd:
1. O=C(O)c1ccccc1Nc1cccc(F)c1 [IIc, N-(3-Fluorophenyl)anthranilic acid]  77.3 µM
2. Cc1ccc(Nc2ccccc2C(=O)O)cc1 [IIb, 2-[(4-methylphenyl)amino]benzoic acid]  98 µM
3. COc1ccc(Nc2ccccc2C(=O)O)cc1 [Compound IIa, 2-[(4-methoxyphenyl)amino]benzoic acid]  131 µM
